We go through two compounds from US20050130989A1, “N-arylheteroaromatic products compositions containing them and use thereof” (Aventis Pharma S. A., priority 2003, published 2005).

Assay [1] deals with T1, tubulin (Sus scrofa, UniProt P02550+P02554).
T1 construct: Tubulin is purified from pig brain according to published methods; from tissue; host or cells: pig brain
Kind of assay: Evaluation of the inhibition of tubulin polymerization (turbidimetry). To be noted: tubulin 10 μm (1 mg/ml), 37° C., turbidity at 350 nm; concentration that inhibits the rate of polymerization by 50%; read-out: Inhibition of tubulin polymerization IC 50 (μm). Type of assay: biochemical, pig. In a few lines:
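Pig brain tubulin (>95% pure), 10 μm in MES pH 6.8/30% glycerol buffer plus 1 mM GTP and 6 mM MgCl2, with compound at 0.5–10 μm added before polymerization. Polymerization triggered by shift from 6° C to 37° C, followed by turbidity at 350 nm; IC50 is 50% inhibition of polymerization rate.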

Assay [2] deals with HDMEC cells (Human Dermal Microvascular Endothelial Cells). Description: Detachment of endothelial cells (test for determining the inhibition of vascularization). Type of assay: cell-based. To be noted: two hours of treatment, calcein labeling, relative to untreated control. The text has this: A test for determining the detachment of the endothelial cells was developed in order to select the products with regard to their “in vitro” activity. This test for determining the detachment of endothelial cells is characterized in that the endothelial cells, inoculated into plates whose bottom is covered with a binder preferably chosen from gelatin, fibronectin and vitronectin, after culturing, are supplemented with a medium containing the test compound, and the cells are then labeled with a fluorescent substance, the, cells which have become detached are removed by washing and the fluorescence of the remaining cells is counted in a fluorimeter.
This test consists in measuring the detachment of endothelial cells cultured on substrata based on a binder preferably chosen from fibronectin, vitronectin and gelatin. […] The fluorescence of the remaining cells is counted in a fluorimeter. […]
The evaluation of the detachment of the endothelial cells in vitro is determined in the following manner. […] The fluorescence of the cells that remain attached to the substratum of the well is counted using a fluorimeter, Spectrafluor Plus (Tecan excitation 485 nm, and emission 535 nm). The data are the mean of six different samples and are expressed as the percentage of the control (untreated cells). […]

Assay [3] has as its system HCT116 cells. Kind of assay: Inhibition of proliferation of the human colon tumor line HCT116 ([14C]-thymidine incorporation). Type of assay: cell-based. Particulars: Homo sapiens, HCT-116, 48 h, 48 hours at 37° C., read-out: Inhibition of HCT116 proliferation IC 50 (μm). In a few lines: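 HCT116 cells (5000/well) in DMEM with 10% fetal calf serum incubated 48 h at 37° C with [14C]-thymidine (0.1 μCi/well) and compound up to 10 μm (DMSO ≤0.5%). Incorporated radioactivity counted; IC50 is concentration cutting radioactivity by 50% versus untreated control.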

SMILES strings stand for the structures. pIC50: −log10 of the molar value.

T1 sequence (P02550 whole entry): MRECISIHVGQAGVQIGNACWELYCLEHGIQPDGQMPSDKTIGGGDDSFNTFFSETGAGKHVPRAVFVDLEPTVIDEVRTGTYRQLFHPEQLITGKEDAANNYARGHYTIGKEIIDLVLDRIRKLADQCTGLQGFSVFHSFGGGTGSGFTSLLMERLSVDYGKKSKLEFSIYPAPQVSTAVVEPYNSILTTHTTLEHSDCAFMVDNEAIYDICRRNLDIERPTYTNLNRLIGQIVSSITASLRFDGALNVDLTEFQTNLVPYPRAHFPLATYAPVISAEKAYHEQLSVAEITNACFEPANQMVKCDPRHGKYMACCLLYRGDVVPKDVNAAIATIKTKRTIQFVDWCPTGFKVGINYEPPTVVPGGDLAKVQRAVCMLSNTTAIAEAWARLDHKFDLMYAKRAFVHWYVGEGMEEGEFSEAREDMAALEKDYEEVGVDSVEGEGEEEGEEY
T1 sequence (P02554 whole entry): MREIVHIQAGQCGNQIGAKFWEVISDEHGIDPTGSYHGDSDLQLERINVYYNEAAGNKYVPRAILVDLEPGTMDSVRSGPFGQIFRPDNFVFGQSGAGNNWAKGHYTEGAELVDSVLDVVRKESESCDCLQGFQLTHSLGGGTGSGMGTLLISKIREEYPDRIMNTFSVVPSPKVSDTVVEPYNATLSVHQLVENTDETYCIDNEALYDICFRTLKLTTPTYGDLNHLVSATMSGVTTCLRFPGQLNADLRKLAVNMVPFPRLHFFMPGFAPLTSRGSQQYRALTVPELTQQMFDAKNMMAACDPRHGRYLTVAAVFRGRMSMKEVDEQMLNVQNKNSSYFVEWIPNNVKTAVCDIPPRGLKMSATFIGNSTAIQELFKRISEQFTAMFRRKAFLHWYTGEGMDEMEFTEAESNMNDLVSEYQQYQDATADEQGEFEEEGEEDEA

Consider `Cc1cc(C(=O)N2CCN(c3ccc(C)c(C)c3)CC2)n(-c2ccccc2)n1` [Example 2, [4-(3,4-Dimethylphenyl)piperazin-1-yl](5-methyl-2-phenyl-2H-pyrazol-3-yl)methanone], for which the pIC50 in assay [1] was 6.22; in assay [3], 6.80. In addition, the “Percentage detachment of HDMEC at 1 μm” value in assay [2] is listed as 16%.
With `Cc1cc(C(=O)N2CCN(c3cccc(Cl)c3)CC2)n(-c2ccccc2)n1` [Example 1, [4-(3-Chlorophenyl)piperazin-1-yl](5-methyl-2-phenyl-2H-pyrazol-3-yl)methanone], the pIC50 is 6.22 in assay [1] and 8.70 in assay [3]. In assay [2], the “Percentage detachment of HDMEC at 1 μm” value is 22%.
